Patent EP4799619A1, “COMPOUND TARGETING EGR-1 AND USE THEREOF FOR TREATMENT OF ATOPIC DERMATITIS” (AgeraMedi, Inc., priority 2023, dated 2025)

Target: EGR-1 (Homo sapiens, UniProt P18146)
Experiment: EGR-1 DNA binding activity assay (EDBA)
Set-up: made in house
Settings: EGR-1 DNA binding inhibitory activity; EGR-1 overexpressing cell lysate; absorbance at 450 nm; compound concentration not given
Method: In this experiment, the inhibitory effect of the compounds of the present invention on EGR-1 binding activity was evaluated using an EGR-1 DNA binding activity assay (EDBA).
Single-stranded sense and antisense oligonucleotides of the following EGR-1 binding sequence (EBS) were prepared by outsourcing to Bioneer Co., Ltd. (Daejeon, Korea). In this case, the 5'-end of the sense oligonucleotide was labeled with biotin. The sense and antisense oligonucleotides were heated at 95 °C for 5 minutes and then left overnight at room temperature to hybridize the sense and antisense oligonucleotides. Hereinafter, the hybridized sense and antisense oligonucleotides are referred to as biotin-EBS. • Sense sequence: biotin-5'-[…]-3' • Antisense sequence: 5'-[…]-3'
Avidin protein was coated on a 96-well plate (purchased from Thermo Fisher Scientific), and biotin-EBS was added to the plate at a concentration of 0.5 pmol/50 µL/well, followed by reaction at 37 °C for 1 hour to allow biotin-EBS oligonucleotide to be attached to the plate. After washing three times with phosphate buffer saline containing 0.05% Tween 20 (PBS/Tween 20) to remove unattached biotin-EBS oligonucleotides, 200 µL of PBS/Tween 20 solution containing 2% bovine serum albumin (BSA) was added to each well, followed by reaction at 37 °C for 1 hour to block the surface of the plate where no oligonucleotide was attached.
The solution containing the sample compound and the EGR-1 protein was added to the biotin-EBS oligonucleotide coated plate prepared in step (2).
The compound sample (1 µL) was reacted with the EGR-1 overexpressing cell lysate containing 10 mM Tris, pH 7.5, 50 mM KCl, 2% BSA and 8% glycerol at room temperature for 30 minutes, and then added to a reaction well coated with biotin-EBS and further reacted at room temperature for one hour. After washing three times with PBS/Tween 20 solution, an EGR-1 antibody was added to the PBS solution supplemented with 2% BSA and 5 mM NaCl in an amount of 50 µL per each well. The mixture was incubated at room temperature for one hour, washed three times with PBS/Tween 20 solution, and then treated with horseradish peroxidase-conjugated secondary antibody (Goat anti-rabbit IgG antibody, Cell Signaling Technology company, Danvers, Mass., USA) diluted by 1:1000 at room temperature for one hour. After washing five times with PBS/Tween 20 solution, a substrate tetramethylbenzidine solution was added to each well in an amount of 50 µL. After reacting for 5 minutes, the reaction was stopped by adding 100 µL of 2 N sulfuric acid solution. The DNA binding inhibitory activity of EGR-1 was measured by absorbance at 450 nm according to Equation 1 below. EGR-1 DNA binding inhibitory activity (%) = 100−{(As/Ap)×100} [formula]
As: absorbance of a sample prepared by reacting an EGR-1-overexpressing cell lysate with the compound.
Ap: absorbance of the sample treated only with EGR-1-overexpressing cell lysate.

Chain of EGR-1 (P18146 whole entry): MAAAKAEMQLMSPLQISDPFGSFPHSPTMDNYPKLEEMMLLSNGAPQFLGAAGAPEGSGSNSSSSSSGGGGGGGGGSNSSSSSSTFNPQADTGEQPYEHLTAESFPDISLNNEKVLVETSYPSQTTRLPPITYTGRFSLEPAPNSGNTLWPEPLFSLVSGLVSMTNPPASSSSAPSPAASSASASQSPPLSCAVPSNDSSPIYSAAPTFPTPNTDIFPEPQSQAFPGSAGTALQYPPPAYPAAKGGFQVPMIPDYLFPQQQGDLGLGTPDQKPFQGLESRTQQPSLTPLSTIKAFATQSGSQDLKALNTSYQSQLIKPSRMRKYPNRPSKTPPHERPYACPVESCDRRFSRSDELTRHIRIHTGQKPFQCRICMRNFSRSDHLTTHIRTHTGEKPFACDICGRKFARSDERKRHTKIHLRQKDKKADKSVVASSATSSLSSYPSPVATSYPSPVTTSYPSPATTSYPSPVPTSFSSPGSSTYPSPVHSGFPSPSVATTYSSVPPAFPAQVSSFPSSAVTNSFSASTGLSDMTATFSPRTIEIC

Question: How did the “Inhibition Rate (%)” value turn out when `O=C1Nc2c(F)cccc2/C1=N/NC(=S)Nc1ccc(Br)cc1` [Compound 19, (Z)-N-(4-bromophenyl)-2-(7-fluoro-2-oxoindolin-3-ylidene)hydrazinethioamide] was run?
Answer: 47.77%

Question: For `Cc1ccc2c(c1)/C(=N/NC(=S)Nc1cccc([N+](=O)[O-])c1)C(=O)N2` [Compound 30, (Z)-2-(5-methyl-2-oxoindolin-3-ylidene)-N-(3-nitrophenyl)hydrazinethioamide], which “Inhibition Rate (%)” value is on record?
Answer: 32.70%

Question: How did the “Inhibition Rate (%)” value turn out when `O=C1Nc2ccc(F)cc2/C1=N/NC(=S)Nc1ccc(C(F)(F)F)cc1` [Compound 17, (Z)-2-(5-fluoro-2-oxoindolin-3-ylidene)-N-(4-(trifluoromethyl)phenyl)hydrazinethioamide] was run?
Answer: 25.57%

Question: For `COc1cccc(NC(=S)N/N=C2\C(=O)Nc3ccc(Br)cc32)c1` [Compound 52, (Z)-2-(5-bromo-2-oxoindolin-3-ylidene)-N-(3-methoxyphenyl)hydrazinethioamide], which “Inhibition Rate (%)” value is on record?
Answer: 9.00%

Question: With `NNC(=S)Nc1ccc(Br)cc1` [Compound 3, N-(4-bromophenyl)hydrazinethioamide] as the compound, how does the “Inhibition Rate (%)” value read?
Answer: 20.73%

Question: `COc1cccc(NC(=S)N/N=C2\C(=O)Nc3cccc(Br)c32)c1` [Compound 51, (Z)-2-(4-bromo-2-oxoindolin-3-ylidene)-N-(3-methoxyphenyl)hydrazinethioamide] was tested. Which “Inhibition Rate (%)” value did it give?
Answer: 28.67%

Question: Which “Inhibition Rate (%)” value does the source give for `NNC(=S)Nc1ccc(F)cc1` [Compound 2, N-(4-fluorophenyl)hydrazinethioamide] here?
Answer: 25.70%

Question: How did the “Inhibition Rate (%)” value turn out when `O=C1Nc2ccc(OC(F)(F)F)cc2/C1=N/NC(=S)Nc1ccccc1` [Compound 76, (Z)-2-(2-oxo-5-(trifluoromethoxy)indolin-3-ylidene)-N-phenylhydrazinethioamide] was run?
Answer: 17.23%

Question: `COc1ccccc1NC(=S)N/N=C1\C(=O)Nc2ccc(C)cc21` [Compound 31, (Z)-N-(2-methoxyphenyl)-2-(5-methyl-2-oxoindolin-3-ylidene)hydrazinethioamide] was tested. Which “Inhibition Rate (%)” value did it give?
Answer: 42.73%

Question: With `O=C1Nc2ccc(F)cc2/C1=N/NC(=S)Nc1ccc(F)cc1` [Compound 14, (Z)-2-(5-fluoro-2-oxoindolin-3-ylidene)-N-(4-fluorophenyl)hydrazinethioamide] as the compound, how does the “Inhibition Rate (%)” value read?
Answer: 17.80%

Question: With `O=C1Nc2cccc(Br)c2/C1=N/NC(=S)Nc1cccc([N+](=O)[O-])c1` [Compound 35, (Z)-2-(4-bromo-2-oxoindolin-3-ylidene)-N-(3-nitrophenyl)hydrazinethioamide] as the compound, how does the “Inhibition Rate (%)” value read?
Answer: 55.33%

Question: For `NNC(=S)NC(=O)c1ccccc1` [Compound 9, N-(hydrazinocarbonothioyl)benzamide], which “Inhibition Rate (%)” value is on record?
Answer: 42.17%

Question: `O=C1Nc2cc(Br)ccc2/C1=N/NC(=S)Nc1ccccc1` [Compound 45, (Z)-2-(6-bromo-2-oxoindolin-3-ylidene)-N-phenylhydrazinethioamide] was tested. Which “Inhibition Rate (%)” value did it give?
Answer: 9.33%

Question: How did the “Inhibition Rate (%)” value turn out when `O=C1Nc2c(Br)cccc2/C1=N/NC(=S)Nc1cccc([N+](=O)[O-])c1` [Compound 49, (Z)-2-(7-bromo-2-oxoindolin-3-ylidene)-N-(3-nitrophenyl)hydrazinethioamide] was run?
Answer: 50.33%

Question: How did the “Inhibition Rate (%)” value turn out when `Cc1ccc2c(c1)/C(=N/NC(=S)Nc1ccc(Br)cc1)C(=O)N2` [Compound 70, (Z)-N-(4-bromophenyl)-2-(5-methyl-2-oxoindolin-3-ylidene)hydrazinethioamide] was run?
Answer: 29.60%

Question: For `Cc1ccc2c(c1)/C(=N/NC(=S)Nc1ccc(F)cc1)C(=O)N2` [Compound 33, (Z)-N-(4-fluorophenyl)-2-(5-methyl-2-oxoindolin-3-ylidene)hydrazinethioamide], which “Inhibition Rate (%)” value is on record?
Answer: 37.77%

Question: How did the “Inhibition Rate (%)” value turn out when `CCNC(=S)N/N=C1\C(=O)Nc2cc(OC)ccc21` [Compound 27, (Z)-N-ethyl-2-(6-methoxy-2-oxoindolin-3-ylidene)hydrazinethioamide] was run?
Answer: 44.00%

Question: How did the “Inhibition Rate (%)” value turn out when `O=C1Nc2ccc(Br)cc2/C1=N/NC(=S)Nc1cccc([N+](=O)[O-])c1` [Compound 48, (Z)-2-(5-bromo-2-oxoindolin-3-ylidene)-N-(3-nitrophenyl)hydrazinethioamide] was run?
Answer: 52.00%

Question: With `O=C1Nc2ccc(F)cc2/C1=N/NC(=S)Nc1cccc(C(F)(F)F)c1` [Compound 62, (Z)-2-(5-fluoro-2-oxoindolin-3-ylidene)-N-(3-(trifluoromethyl)phenyl)hydrazinethioamide] as the compound, how does the “Inhibition Rate (%)” value read?
Answer: 10.00%

Question: How did the “Inhibition Rate (%)” value turn out when `O=C1Nc2ccc(OC(F)(F)F)cc2/C1=N/NC(=S)Nc1ccc(Br)cc1` [Compound 79, (Z)-N-(4-bromophenyl)-2-(2-oxo-5-(trifluoromethoxy)indolin-3-ylidene)hydrazinethioamide] was run?
Answer: 42.27%

Question: With `Cc1ccc2c(c1)/C(=N/NC(=S)NCc1ccccc1)C(=O)N2` [Compound 74, (Z)-N-benzyl-2-(5-methyl-2-oxoindolin-3-ylidene)hydrazinethioamide] as the compound, how does the “Inhibition Rate (%)” value read?
Answer: 40.60%

Question: With `Cc1ccc2c(c1)/C(=N/NC(=S)Nc1ccccc1)C(=O)N2` [Compound 29, (Z)-2-(5-methyl-2-oxoindolin-3-ylidene)-N-phenylhydrazinethioamide] as the compound, how does the “Inhibition Rate (%)” value read?
Answer: 27.50%

Question: With `Cc1cccc(NC(=S)N/N=C2\C(=O)Nc3ccc(F)cc32)c1` [Compound 64, (Z)-2-(5-fluoro-2-oxoindolin-3-ylidene)-N-(m-tolyl)hydrazinethioamide] as the compound, how does the “Inhibition Rate (%)” value read?
Answer: 37.90%

Question: For `O=C1Nc2ccccc2/C1=N/NC(=S)Nc1cccc([N+](=O)[O-])c1` [Compound 47, (Z)-N-(3-nitrophenyl)-2-(2-oxoindolin-3-ylidene)hydrazinethioamide], which “Inhibition Rate (%)” value is on record?
Answer: 35.33%

Question: With `O=C1Nc2ccc(Br)cc2/C1=N/NC(=S)Nc1ccccc1` [Compound 44, (Z)-2-(5-bromo-2-oxoindolin-3-ylidene)-N-phenylhydrazinethioamide] as the compound, how does the “Inhibition Rate (%)” value read?
Answer: 5.67%

Question: With `COc1ccc2c(c1)NC(=O)/C2=N\NC(=S)NCc1ccccc1` [Compound 69, (Z)-N-benzyl-2-(6-methoxy-2-oxoindolin-3-ylidene)hydrazin-1-carbothioamide] as the compound, how does the “Inhibition Rate (%)” value read?
Answer: 14.17%

Question: How did the “Inhibition Rate (%)” value turn out when `COc1ccc2c(c1)NC(=O)/C2=N\NC(=S)Nc1ccc(F)cc1` [Compound 67, (Z)-N-(4-fluorophenyl)-2-(6-methoxy-2-oxoindolin-3-ylidene)hydrazin-1-carbothioamide] was run?
Answer: 25.90%

Question: Which “Inhibition Rate (%)” value does the source give for `CCNC(=S)N/N=C1\C(=O)Nc2ccc(C)cc21` [Compound 73, (Z)-N-ethyl-2-(5-methyl-2-oxoindolin-3-ylidene)hydrazinethioamide] here?
Answer: 29.80%

Question: With `Cc1cccc(NC(=S)N/N=C2\C(=O)Nc3ccc(C)cc32)c1` [Compound 75, (Z)-2-(5-methyl-2-oxoindolin-3-ylidene)-N-(m-tolyl)hydrazinethioamide] as the compound, how does the “Inhibition Rate (%)” value read?
Answer: 39.27%

Question: With `NC(=S)N/N=C1\C(=O)Nc2ccc(Br)cc21` [Compound 34, (Z)-2-(5-bromo-2-oxoindolin-3-ylidene)hydrazinethioamide] as the compound, how does the “Inhibition Rate (%)” value read?
Answer: 46.00%

Question: How did the “Inhibition Rate (%)” value turn out when `COc1ccc2c(c1)NC(=O)/C2=N\NC(=S)Nc1cccc(C)c1` [Compound 28, (Z)-2-(6-methoxy-2-oxoindolin-3-ylidene)-N-(m-tolyl)hydrazinethioamide] was run?
Answer: 28.67%

Question: `COc1ccc2c(c1)NC(=O)/C2=N\NC(=S)Nc1ccc(Br)cc1` [Compound 68, (Z)-N-(4-bromophenyl)-2-(6-methoxy-2-oxoindolin-3-ylidene)hydrazin-1-carbothioamide] was tested. Which “Inhibition Rate (%)” value did it give?
Answer: 17.80%

Question: With `NNC(=S)NCc1ccccc1` [Compound 10, N-benzylhydrazinethioamide] as the compound, how does the “Inhibition Rate (%)” value read?
Answer: 35.47%

Question: `Cc1ccc2c(c1)/C(=N/NC(=S)Nc1ccc(C#N)cc1)C(=O)N2` [Compound 71, (Z)-N-(4-cyanophenyl)-2-(5-methyl-2-oxoindolin-3-ylidene)hydrazinethioamide] was tested. Which “Inhibition Rate (%)” value did it give?
Answer: 29.93%

Question: Which “Inhibition Rate (%)” value does the source give for `N#Cc1ccc(NC(=S)N/N=C2\C(=O)Nc3ccc(F)cc32)cc1` [Compound 16, (Z)-N-(4-cyanophenyl)-2-(5-fluoro-2-oxoindolin-3-ylidene)hydrazinethioamide] here?
Answer: 40.57%

Question: For `O=C1Nc2ccc(F)cc2/C1=N/NC(=S)Nc1cccc([N+](=O)[O-])c1` [Compound 13, (Z)-2-(5-fluoro-2-oxoindolin-3-ylidene)-N-(3-nitrophenyl)hydrazinethioamide], which “Inhibition Rate (%)” value is on record?
Answer: 25.57%

Question: With `NC(=S)N/N=C1\C(=O)Nc2c(Br)cccc21` [Compound 42, (Z)-2-(7-bromo-2-oxoindolin-3-ylidene)hydrazinethioamide] as the compound, how does the “Inhibition Rate (%)” value read?
Answer: 53.00%
